Assay results: patent publication US20030166721A1, “Choline derivative for the treatment of alzheimer's disease” (priority 2000, published 2003)

System: NBM lesioned rats
Test: EEG in rats with unilateral AMPA lesion of Meynert nucleus basalis (NBM)
Assay type: in vivo, rat
Method: Male Wistar rats (200-250 g), anaesthetised with chloral hydrate (400 mg/kg), were subjected to unilateral lesion of Meynert nucleus basalis (NBM), by intracerebral infusion of α-amino-3-hydroxy-4-isoxazolepropionic acid (AMPA) (1.3 μg/0.5 μl). The animals were divided into four groups, the first two were subjected to NBM lesion; the third was a sham-operated group, and the last was the control group. Two weeks after the lesion, the animals were implanted under general anesthesia, with cortical electrodes (n=4) onto the fronto-parietal region, so as to make it possible, 24 hours later, to record the EEG activity of freely moving animals. EEG activity was continuously monitored and recorded for 60 min by a computerised EEG Berg-Fourier apparatus. Spontaneous activity of the EEG spectrum total power (0.25-16 Hz), as well as that of preselected frequency bands, was recorded for times of 5 min and quantitized (μV).
In order to quantitize AMPA-induced neuronal loss in NBM, coronal serial sections of rat brain were prepared, then stained with toluidine blue to verify the injection site and treated, by immunohistochemical procedure, with 192LR-NGF to quantitize the neuronal loss. Said sections were analysed by a computerized system for image analysis (Axiophoy Zeiss and Vidas Kintron). Statistical analysis of the data from the morphological study was performed by ANOVA followed, if significant, by the post-hoc Tuckey-Kramer test.
In lesioned animals (n=16), with about 45% neuronal loss at the NBM level (FIG. 5), EEG synchronization accompanied with significant increase (P<0.01) in total power (0.25-16 Hz), (170.4±25.8) of EEG spectrum (μV), as well as in higher frequency bands (6-9, 9-12 and 12-16 Hz) (FIG. 7; Tab. 4), was observed. EEG activity of half the NBM lesioned animals was further recorded. After recording the baseline EEG activity, this group of animals was intraperitoneally administered with a PC-1 single dose.

[1] = NBM unilaterally lesioned rats + PC-1 (5 mg i.p.), hemisphere ipsilateral to lesion

Structure (SMILES): CC(C)(C)C(=O)OCC[N+](C)(C)C.[I-] [PC-1, pivaloylcholine iodide]
- Effect on EEG spectrum after NBM excitotoxic lesion (FIG. 7) (NBM lesioned rats (AMPA), 5 mg i.p.): restores both the normal composition of EEG spectrum and the distribution of its frequencies
- Duration of the decrease in ECoG spectrum total power (NBM lesioned rats, 5 mg i.p.): about 15 min
- Time to onset of alert response, EEG desynchronization and decrease in ECoG total power (NBM lesioned rats, 5 mg i.p.): ≤ 15 min
- Change in 6 rhythm (0.25-3 Hz) (NBM lesioned rats, 5 mg i.p., P<0.05): significant decrease
- ECoG spectrum total power, second value of printed pair (NBM lesioned rats, 5 mg i.p., presumably after PC-1): 96±20.3
- ECoG spectrum total power, first value of printed pair (NBM lesioned rats, 5 mg i.p., presumably before PC-1): 150±19.3
- EEG spectrum band 0.25-3 Hz [1]: 3.4%
- EEG spectrum band 3-6 Hz [1]: 33.3%
- EEG spectrum band 6-9 Hz [1]: 23.5%
- EEG spectrum band 9-12 Hz [1]: 13.6%
- EEG spectrum band 12-16 Hz [1]: 14.6%
